Columns and labels:
barnyardgrass [1] = experiment: Test C pre-/postemergence herbicide test; type: in vivo, Echinochloa crus-galli
Method in brief: (§1)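 Visual rating, 0 (no effect) to 100 (complete control), versus untreated controls after 13 to 15 days in the greenhouse. Pre: seeds in loam/sand, sprayed at planting. Post: 1- to 4-leaf plants (2 to 18 cm) in peat-based mix. Compounds in non-phytotoxic solvent plus surfactant.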

crabgrass, large = experiment: Test C pre-/postemergence herbicide test; type: in vivo, Digitaria sanguinalis
Method in brief: as §1

blackgrass = experiment: Test C pre-/postemergence herbicide test; type: in vivo, Alopecurus myosuroides
Method in brief: as §1

rice = experiment: Test B flooded paddy test; type: in vivo, Oryza sativa; conditions: 500 g ai/ha, Flood; scale of 0 to 100 where 0 is no effect and 100 is complete control
Method in brief: (§2)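 Plants grown to 2-leaf stage; pots flooded 3 cm above soil and compound applied directly into paddy water, depth held throughout. Visual rating against untreated controls after 13 to 15 days in greenhouse, 0 (no effect) to 100 (complete control).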

soybean = experiment: Test C pre-/postemergence herbicide test; type: in vivo, Glycine max
Method in brief: as §1

morningglory = experiment: Test C pre-/postemergence herbicide test; type: in vivo, Ipomoea coccinea
Method in brief: as §1

corn = experiment: Test A pre-/postemergence herbicide test; type: in vivo, Zea mays; conditions: Postemergence
Method in brief: (§3)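 Seeds sown in loam soil/sand blend received a preemergence directed soil spray of test chemical in non-phytotoxic solvent with surfactant; postemergence plants (2–10 cm, one- to two-leaf stage) were sprayed with the same formulation. After about 10 days in greenhouse, injury was rated visually versus untreated controls, 0 (no effect) to 100 (complete control).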

giant foxtail = experiment: Test A pre-/postemergence herbicide test; type: in vivo, Setaria faberii
Method in brief: as §3

ducksalad = experiment: Test B flooded paddy test; type: in vivo, Heteranthera limosa; conditions: 500 g ai/ha, Flood; scale of 0 to 100 where 0 is no effect and 100 is complete control
Method in brief: as §2

ragweed = experiment: Test C pre-/postemergence herbicide test; type: in vivo, Ambrosia elatior
Method in brief: as §1

barnyardgrass [2] = experiment: Test A pre-/postemergence herbicide test; type: in vivo, Echinochloa crus-galli
Method in brief: as §3

sedge, umbrella = experiment: Test B flooded paddy test; type: in vivo, Cyperus difformis; conditions: 500 g ai/ha, Flood; scale of 0 to 100 where 0 is no effect and 100 is complete control
Method in brief: as §2

barnyardgrass [3] = experiment: Test B flooded paddy test; type: in vivo, Echinochloa crus-galli; conditions: 500 g ai/ha, Flood; scale of 0 to 100 where 0 is no effect and 100 is complete control
Method in brief: as §2

[4] = Postemergence, 31 g ai/ha, scale 0 to 100 (0 no effect, 100 complete control)
[5] = Postemergence, 62 g ai/ha, scale 0 (no effect) to 100 (complete control)
[6] = Postemergence, 125 g ai/ha, scale 0 to 100 (0 no effect, 100 complete control)
[7] = Postemergence, 250 g ai/ha, scale 0 to 100 (0 no effect, 100 complete control)
[8] = Preemergence, 31 g ai/ha, scale 0 to 100, 0 is no effect and 100 is complete control
[9] = Preemergence, 62 g ai/ha, scale 0 to 100 (0 no effect, 100 complete control)
[10] = Preemergence, 125 g ai/ha, scale 0 to 100 (0 no effect, 100 complete control)
[11] = Postemergence, 125 g ai/ha, visual rating on 0 to 100 scale (0 no effect, 100 complete control), approx. 10 days
[12] = Postemergence, 500 g ai/ha, 0 to 100 scale (0 no effect, 100 complete control)
[13] = Preemergence, 125 g ai/ha, 0 to 100 scale where 0 is no effect and 100 is complete control
[14] = Preemergence, 500 g ai/ha, visual rating on 0 to 100 scale (0 no effect, 100 complete control)

Structure (SMILES): CN1CC(c2ccc(F)c(F)c2)C(C(=O)Nc2ccccc2F)C1=O (centres unmarked) [Compound 302]
- Plant response rating, Barnyardgrass (barnyardgrass [1]; [4]): 0
- Plant response rating, Barnyardgrass (barnyardgrass [1]; [5]): 20
- Plant response rating, Barnyardgrass (barnyardgrass [1]; [6]): 40
- Plant response rating, Barnyardgrass (barnyardgrass [1]; [7]): 90
- Barnyardgrass plant response rating (barnyardgrass [1]; [8]): 90
- Barnyardgrass plant response rating (barnyardgrass [1]; [9]): 85
- Plant response rating, Barnyardgrass (barnyardgrass [1]; [10]): 100
- Plant response rating (scale of 0 to 100; 0 is no effect, 100 is complete control), Barnyardgrass (barnyardgrass [1]; Preemergence, 250 g ai/ha): 100
- Plant response rating, Crabgrass, Large (crabgrass, large; [4]): 0
- Plant response rating, Crabgrass, Large (crabgrass, large; [5]): 50
- Plant response rating, Crabgrass, Large (crabgrass, large; [6]): 70
- Plant response rating, Crabgrass, Large (crabgrass, large; [7]): 85
- Crabgrass, Large plant response rating (crabgrass, large; [8]): 95
- Crabgrass, Large plant response rating (crabgrass, large; [9]): 98
- Plant response rating, Crabgrass, Large (crabgrass, large; [10]): 100
- Plant response rating (scale of 0 to 100), Crabgrass, Large (crabgrass, large; Preemergence, 250 g ai/ha): 100
- Plant response rating, Blackgrass (blackgrass; [4]): 0
- Plant response rating, Blackgrass (blackgrass; [5]): 0
- Plant response rating, Blackgrass (blackgrass; [6]): 0
- Plant response rating, Blackgrass (blackgrass; [7]): 5
- Blackgrass plant response rating (blackgrass; [8]): 0
- Blackgrass plant response rating (blackgrass; [9]): 30
- Plant response rating, Blackgrass (blackgrass; [10]): 60
- Plant response rating (scale of 0 to 100), Blackgrass (blackgrass; Preemergence, 250 g ai/ha): 85
- Plant response rating, Rice (rice): 0
- Plant response rating, Soybean (soybean; [4]): 0
- Plant response rating, Soybean (soybean; [5]): 0
- Plant response rating, Soybean (soybean; [6]): 0
- Plant response rating, Soybean (soybean; [7]): 65
- Soybean plant response rating (soybean; [8]): 0
- Soybean plant response rating (soybean; [9]): 30
- Plant response rating, Soybean (soybean; [10]): 0
- Plant response rating (scale of 0 to 100), Soybean (soybean; Preemergence, 250 g ai/ha): 0
- Plant response rating, Morningglory (morningglory; [4]): 10
- Plant response rating, Morningglory (morningglory; [5]): 15
- Plant response rating, Morningglory (morningglory; [6]): 50
- Plant response rating, Morningglory (morningglory; [7]): 25
- Morningglory plant response rating (morningglory; [8]): 0
- Morningglory plant response rating (morningglory; [9]): 0
- Plant response rating, Morningglory (morningglory; [10]): 0
- Plant response rating (scale of 0 to 100), Morningglory (morningglory; Preemergence, 250 g ai/ha): 0
- Plant response rating, Corn (corn; 125 g ai/ha, visual rating on 0 to 100 scale (0 no effect, 100 complete control), approx. 10 days): 0
- Plant response rating, Corn (corn; 500 g ai/ha, 0 to 100 scale (0 no effect, 100 complete control)): 40
- Plant response rating, Foxtail, Giant (giant foxtail; [11]): 80
- Plant response rating, Foxtail, Giant (giant foxtail; [12]): 80
- Plant response rating, Foxtail, Giant (giant foxtail; [13]): 90
- Foxtail, Giant plant response rating (giant foxtail; [14]): 90
- Plant response rating, Ducksalad (ducksalad): 98
- Plant response rating, Ragweed (ragweed; [4]): 10
- Plant response rating, Ragweed (ragweed; [5]): 20
- Plant response rating, Ragweed (ragweed; [6]): 20
- Plant response rating, Ragweed (ragweed; [7]): 55
- Ragweed plant response rating (ragweed; [8]): 35
- Ragweed plant response rating (ragweed; [9]): 5
- Plant response rating, Ragweed (ragweed; [10]): 5
- Plant response rating (scale of 0 to 100), Ragweed (ragweed; Preemergence, 250 g ai/ha): 10
- Plant response rating, Barnyardgrass (barnyardgrass [2]; [11]): 90
- Plant response rating, Barnyardgrass (barnyardgrass [2]; [12]): 90
- Plant response rating, Barnyardgrass (barnyardgrass [2]; [13]): 90
- Barnyardgrass plant response rating (barnyardgrass [2]; [14]): 90
- Plant response rating, Sedge, Umbrella (sedge, umbrella): 0
- Plant response rating, Barnyardgrass (barnyardgrass [3]): 80

— patent publication US10294202B2, “Pyrrolidinones as herbicides” (FMC Corporation, priority 2013, dated 2019)
